Results on two molecules are retold here after patent US20020110815A1, “Novel genes, compositions and methods for the identification, assessment, prevention, and therapy of human cancers” (priority 2000, published 2002).

Test [1] deals with TAXOL resistant cancer cell lines. As to the kind of experiment: TAXOL growth inhibition (GI50), mean of TAXOL resistant cell lines. It counts as cell-based, human. The conditions noted are these: mean of the nine TAXOL resistant cell lines of Table B. As to the method: (§1) One group of nine cell lines was determined to be sensitive to TAXOL (Table C), the other group of nine cell lines was determined to be resistant to TAXOL (Table B). Sensitivity to TAXOL was based on known GI50 values for these cells, which for this study was defined as the concentration of TAXOL required to inhibit growth of the cell line by 50%. More precisely, the quantity used in the calculation is the potency measure −log {GI50}. Pooled RNA from TAXOL sensitive cancer cell lines was used as tester against driver RNA pooled from TAXOL resistant cancer cell lines. The results of this subtractive library are shown in SEQ ID NOS: 1-127, SEQ ID NOS: 398-517 and SEQ ID NOS: 746-841. Pooled RNA from TAXOL resistant cancer cell lines was used as tester against driver RNA pooled from TAXOL sensitive cancer cell lines. The results of this subtractive library are shown in SEQ ID NOS: 128-397, SEQ ID NOS: 518-745 and SEQ ID NOS: 842-1046.

In test [2] the test system is TAXOL sensitive cancer cell lines. Kind of test: TAXOL growth inhibition (GI50), mean of TAXOL sensitive cell lines. It counts as cell-based. The conditions noted are these: Homo sapiens; mean of the nine TAXOL sensitive cell lines of Table C; read-out: Log GI 50 for TAXOL (Mean) (converted). On the procedure:
as §1

The next test relates to EKVX. The conditions noted are these: non-small cell lung carcinoma, TAXOL resistant cell line; cited from earlier work.
The next test deals with HOP-92. The conditions noted are these: HOP-92, non-small cell lung carcinoma, TAXOL resistant cell line; cited from earlier work.
The subject of another test is HCT-15. The conditions noted are these: HCT-15, colon, TAXOL resistant cell line; cited from earlier work.
A further test relates to MALME-3M. The conditions noted are these: melanoma, TAXOL resistant cell line; cited from earlier work.
In the next test the test system is SK-MEL-28. The conditions noted are these: SK-MEL-28, melanoma, TAXOL resistant cell line; cited from earlier work.
The test system of a further test is OVCAR-4. To be noted: OVCAR-4, ovarian, TAXOL resistant cell line; cited from earlier work.
For a further test, the system named is ACHN. The conditions noted are these: renal, TAXOL resistant cell line; cited from earlier work.
A further test concerns MCF-7/AdrRes. The conditions noted are these: breast, TAXOL resistant cell line; cited from earlier work.
For a further test, the system named is T-47D. To be noted: breast, TAXOL resistant cell line; cited from earlier work.
The next test relates to NCI-H460. The conditions noted are these: NCI-H460, non-small cell lung carcinoma, TAXOL sensitive cell line; cited from earlier work.
Another test has as its system NCI-H522. To be noted: NCI-H522, non-small cell lung carcinoma, TAXOL sensitive cell line; cited from earlier work.
A further test relates to HT-29. To be noted: HT-29, colon, TAXOL sensitive cell line; cited from earlier work.
In a further test the test system is SK-MEL-2. To be noted: SK-MEL-2, melanoma, TAXOL sensitive cell line; cited from earlier work.
The next test concerns SK-MEL-5. The conditions noted are these: SK-MEL-5, melanoma, TAXOL sensitive cell line; cited from earlier work.
The next test has as its system OVCAR-3. The conditions noted are these: OVCAR-3, ovarian, TAXOL sensitive cell line; cited from earlier work.
The subject of a further test is SN12C. The conditions noted are these: renal, TAXOL sensitive cell line; cited from earlier work.
The test system of the next test is MCF-7. The conditions noted are these: MCF-7, breast, TAXOL sensitive cell line; cited from earlier work.
The next test concerns MDA-MB-435. To be noted: MDA-MB-435, breast, TAXOL sensitive cell line; cited from earlier work.
For the next test, the system named is tumor. The conditions noted are these: animal models; cited from earlier work.

For `CC(=O)O[C@H]1C(=O)[C@@]2(C)[C@H]([C@H](OC(=O)c3ccccc3)[C@]3(O)C[C@H](OC(=O)[C@H](O)[C@@H](NC(=O)c4ccccc4)c4ccccc4)C(C)=C1C3(C)C)[C@]1(OC(C)=O)CO[C@@H]1C[C@@H]2O` [TAXOL], the “Log GI 50 for TAXOL (Mean)” value in test [1] was −6.5. The GI50 in test [2] is 3.16 nM. Further, the “Log GI 50 for TAXOL” value in the test with EKVX was −6.6; in the test with HOP-92, −7.2; in the test on HCT-15, −6.7; in the test on MALME-3M it was −6.8; in the test with SK-MEL-28, −7.1; in the test with OVCAR-4, −6.3. Also, the “Log GI 50 for TAXOL” value with ACHN is on record as −5.8; with MCF-7/AdrRes, −5.5; with T-47D it was −6.9; with NCI-H460 it was −8.5; with NCI-H522 it was −8.5; in the test on HT-29 it was −8.6. The “Log GI 50 for TAXOL” value in the test with SK-MEL-2 is listed as −8.3; with SK-MEL-5, −8.4; with OVCAR-3 it was −8.5; in the test on SN12C it was −8.5; in the test with MCF-7, −8.5; in the test with MDA-MB-435, −8.6.
For `CC(=O)O[C@@]12CO[C@@H]1C[C@H](O)[C@@]1(C)C(=O)[C@H](O)C3=C(C)[C@@H](OC(=O)[C@H](O)[C@@H](NC(=O)OC(C)(C)C)c4ccccc4)C[C@@](O)([C@@H](OC(=O)c4ccccc4)[C@H]21)C3(C)C` [Taxotere, docetaxel], in the test on tumor, the anti-tumor activity result is recorded as “good anti-tumor activity”.
